Here are results for nine compounds from patent US4868162A, “Antiviral agent” (Teijin Limited, priority 1985, dated 1989).

Values after ≈ are worked out from the molar mass of the structure shown.

Series [1] in a line: in vitro. The settings on record: monkey, vero cells. Type of series: cell-based, African green monkey. As for the experimental part:
(§1) Vero cells. were cultured in Eagle essential medium (MEM) containing 5% fetal calf serum (FCS) and were made to proliferate after the monolayer cell culture method. The cells were inoculated with 0.1 ml of herpes simplex type I virus (KOS strain) of 2,000 pfu/ml concentration, which were made to be adsorbed by the host cells at 37° C. for 1 hour. The virus that were not yet adsorbed were washed away with a 2% CS-MEM medium and then test compounds, inclusive of the compounds of this invention, were added to the cultures respectively in concentration of 0.01~1,000 μg/ml.
(§2) After 48-hour culture in 2% CS-MEM medium was over, the effective dose of each test compound which suppressed the formation of plaques by 50% in number (ED50) and the minimum toxic dose (MTD) which caused the cytotoxicity were measured.

Series [2] relates to herpes simplex type I virus (KOS strain). As to the kind of experiment: Plaque reduction in herpes simplex type I infected Vero cells (Example 3, 2,000 pfu/ml). Type of series: cell-based. The settings on record: for Therapeutic index MTD/ED50: HSV-1 KOS 2,000 pfu/ml, 2880 min; for EC50: Human alphaherpesvirus 1, HSV-1 KOS 2,000 pfu/ml, 48-hour culture, read-out: ED50 (effective dose which suppressed the formation of plaques by 50% in number). As for the experimental part:
as §1, §2

For series [3] the test system is unchanged. Kind of series: Plaque reduction in herpes simplex type I infected Vero cells (Example 2, 10,000 pfu/ml). In kind it is cell-based. The settings on record: HSV-1 KOS 10,000 pfu/ml; for EC50: Human alphaherpesvirus 1, 48-hour culture, read-out: ED50 (effective dose which suppressed the formation of plaques by 50% in number); for EC50 / Therapeutic index MTD/ED50: Vero cells; for Therapeutic index MTD/ED50: 2880 min. The procedure: Vero cells were cultured in Eagle minimum
1 medium (MEM) containing 5% calf serum (CS) and were made to proliferate after the monolayer cell culture method. The cultured cells were inoculated with 0.1 ml of herpes simplex type I virus (KOS strain) of 10,000 pfu/ml concentration, which were left to be adsorbed by the host cells at 37° C. for 1 hour. The test compounds, inclusive of the compounds of this invention, were added to the cultures respectively in concentration of 0.001~1,000 μg/ml.
After 48-hour culture in 2% CS-MEM medium was over, the effective dose of each test compound which suppressed the formation of plaques by 50% in number (EDs) and the minimum toxic dose (MTD) which caused the cytotoxicity were measured.

A short description of series [4]: in vitro. The settings on record: monkey, vero cells. Type of series: cell-based, African green monkey. As for the experimental part:
Vero cells were cultured in Eagle minimum 1 medium (MEM) containing 5% calf serum (CS) and were made to proliferate after the monolayer cell culture method. […] After 48-hour culture in 2% CS-MEM medium was over, the effective dose of each test compound which suppressed the formation of plaques by 50% in number (EDs) and the minimum toxic dose (MTD) which caused the cytotoxicity were measured.
This is another data set of the same source.

In series [5] the test system is herpes simplex type I virus (KOS strain). As to the kind of experiment: Plaque reduction in herpes simplex type I infected Vero cells (Example 1, 1,000 pfu/ml). Type of series: cell-based. The note with it: for Therapeutic index MTD/ED50: HSV-1 KOS 1,000 pfu/ml, 2880 min; for EC50: Human alphaherpesvirus 1, HSV-1 KOS 1,000 pfu/ml, 48-hour culture, read-out: ED50 (effective dose which suppressed the formation of plaques by 50% in number). The procedure:
(§3) Vero cells were cultured in Eagle minimum essential medium (MEM) containing 5% calf serum (CS) and were made to proliferate by means of monolayer cell culture. The cells were inoculated with 0.1 ml of herpes simplex type I virus (KOS strain) adjusted to 1,000 pfu/ml, which were allowed to hold on the host cells by adsorption for 1 hour at 37° C. Thereafter, the test compound, inclusive of the compounds of this invention, were added thereto respectively in concentration of 0.01~1,000 μg/ml.
(§4) After 48-hour culture in CS-MEM medium was over, the effective dose of each test compound which suppressed the formation of plaques by 50% in number (ED50) and the minimum toxic dose (MTD) which caused the cytotoxicity were measured.

A short description of series [6]: Cytotoxicity, minimum toxic dose in Vero cells (Example 1). Type of series: cell-based, African green monkey. The note with it: monkey. The procedure:
as §3, §4

`O=C(OC[C@H]1O[C@@H](n2cc(F)c(=O)[nH]c2=O)C[C@@H]1OC(=O)c1ccccc1)c1ccccc1` [3',5'-dibenzoyl-5-fluoro-2'-deoxyuridine]: the MCC at 48 h in “in vitro [1]” stood at 100 µg/mL. In addition, in series [2], the “Therapeutic index MTD/ED50” value came out at 893 and the EC50 was 0.112 µg/mL (≈ 0.246 µM).

As for `CCCCCCCCCC(=O)OC[C@H]1O[C@@H](n2cc(F)c(=O)[nH]c2=O)C[C@@H]1OC(=O)CCCCCCCCC` [3',5'-didecanoyl-5-fluoro-2'deoxyuridine, 3',5'-didecanoyl-5-fluoro-2'-deoxyuridine], in series [3], the EC50 amounted to 0.038 µg/mL (≈ 0.0685 µM) and the “Therapeutic index MTD/ED50” value is 2,600. For the same compound, the MCC at 48 h in the series “in vitro [4]” came out at 100 µg/mL.

As to `CCCCCCCCCCCC(=O)OC[C@H]1O[C@@H](n2cc(F)c(=O)[nH]c2=O)C[C@@H]1OC(=O)CCCCCCCCCCC` [3',5'-didodecanoyl-5-fluoro-2'-deoxyuridine], in series [5], the “Therapeutic index MTD/ED50” value is reported as 1,900 and the EC50 is 0.054 µg/mL (≈ 0.0884 µM). In series [6] (vero cells), the MCC at 48 h turned out to be 100 µg/mL.

Consider `CCCCCCCCCCCCCCCC(=O)OC[C@H]1O[C@@H](n2cc(F)c(=O)[nH]c2=O)C[C@@H]1OC(=O)CCCCCCCCCCCCCCC` [3',5'-dihexadecanoyl-5-fluoro-2'-deoxyuridine], for which, in series [5], the “Therapeutic index MTD/ED50” value is given as 2,000 and the EC50 amounted to 0.077 µg/mL (≈ 0.106 µM). In series [6] (vero cells), this compound displayed an MCC at 48 h of 150 µg/mL.

In the case of `CCCCCCCC(=O)OC[C@H]1O[C@@H](n2cc(F)c(=O)[nH]c2=O)C[C@@H]1OC(=O)CCCCCCC` [3',5'-dioctanoyl-5-fluoro-2'-deoxyuridine], in series [3], the EC50 came to 0.018 µg/mL (≈ 0.0361 µM) and the “Therapeutic index MTD/ED50” value is 5,600. Further, the “effective dose relative to that of Acyclovir for the same effect” value in series [3] (fraction of Acyclovir effective dose) is reported as “about 1/400”. This compound also displayed an MCC at 48 h in “in vitro [4]” of 100 µg/mL.

`CCCCCCCC(=O)OC[C@H]1O[C@@H](n2cc(I)c(=O)[nH]c2=O)C[C@@H]1OC(=O)CCCCCCC` [3',5'-dioctanoyl-5-iodo-2'-deoxyuridine] yielded an MCC at 48 h in “in vitro [1]” of 10 µg/mL. In addition, in series [2], the “Therapeutic index MTD/ED50” value is listed as 35 and the EC50 is 0.285 µg/mL (≈ 0.47 µM).

With `CCCCCCCCCCCCCC(=O)OC[C@H]1O[C@@H](n2cc(F)c(=O)[nH]c2=O)C[C@@H]1OC(=O)CCCCCCCCCCCCC` [3',5'-ditetradecanoyl-5-fluoro-2'-deoxyuridine], in series [5], the “Therapeutic index MTD/ED50” value was 2,000 and the EC50 was 0.049 µg/mL (≈ 0.0735 µM). Also, the MCC at 48 h in series [6] (vero cells) worked out at 100 µg/mL.

Consider `O=c1[nH]c(=O)n([C@H]2C[C@H](O)[C@@H](CO)O2)cc1F` [5-fluoro-2'-deoxyuridine, reference compound], for which, in series [5], the “Therapeutic index MTD/ED50” value came out at 10 and the EC50 was found to be 0.01 µg/mL (≈ 0.0406 µM). The MCC at 48 h in series [6] (Vero cells, Example 1, 48-hour culture, read-out: MTD (minimum toxic dose which caused the cytotoxicity)) came to 0.1 µg/mL.

Consider `Nc1nc2c(ncn2COCCO)c(=O)[nH]1` [9-(2-hydroxyethoxymethyl)guanine, reference compound], for which the figures for the “Therapeutic index MTD/ED50” value in series [5], in series [2] and in series [3] were 1,000, 279 and 140, respectively. The EC50 in series [5] is 0.991 µg/mL (≈ 4.4 µM); in series [2] it was 3.36 µg/mL (≈ 14.9 µM); in series [3], 7.26 µg/mL (≈ 32.2 µM). Moreover, the MCC at 48 h (in “in vitro [1]”; in series [6] (vero cells); in the series “in vitro [4]”) was 1000 µg/mL each time.
